The test system of experiment [1] is C. difficile. The following applies: added to the culture medium, concentration-dependent, reference (32); cited from earlier work.
In experiment [2] the test system is C. difficile (VPI10463) toxin A and toxin B. The experiment can be described thus: Extracellular toxin in cell free supernatants by SDS-PAGE with GelCode Blue staining. The format is cell-based, Clostridium difficile. The following applies: 16.7 mM; for toxin levels in media supernatants (band larger than 225 kDa): 72 hour growth period, 7.5% gel, versus control. How it is done: FIG. 2 illustrates that toxin production occurs earlier and is increased with the addition of L-proline or glycine to the culture media of C. difficile, but is diminished with L-hydroxyproline. C. difficile (VPI10463) culture media was collected by centrifugation at the indicated time points. Cell free supernatants were filtered (0.2 μm filter) and equal volumes (50 μL) were separated by SDS-PAGE and stained overnight with GelCode Blue. Gel migration was compared with that of purified toxin A (List Biologicals).
For analysis of extracellular toxins, 50 μL aliquots of cell free supernatant from each C. difficile culture across a 72 hour growth study was analyzed by sodium dodecyl sulfate-polyacrylamide gel electrophoresis (SDS-PAGE) (7.5% polyacrylamide). The separated proteins were visualized after staining overnight with GelCode Blue (Thermo Scientific, Waltham, Mass.).

Experiment [3] has as its system tcdB. Conditions: 16.7 mM, mRNA harvested after 72 hours of growth.
Experiment [4] relates to tcdA. The following applies: 16.7 mM, mRNA harvested after 72 hours of growth.
In experiment [5] the test system is C. difficile (VPI10463). The experiment can be described thus: Growth curve of C. difficile in rich medium (TYGSe), optical density at 600 nm. It counts as cell-based, Clostridium difficile. The following applies: VPI10463, rich medium plus 16.7 mM amino acid, 72 hour growth period.
For experiment [6], the system named is C. difficile (VPI10463). Conditions: stationary phase (24 to 72 hours), 16.7 mM; versus control and the other amino acids.
Description: Optical density (FIG. 1A) was followed for 72 hours after inoculation. Total protein (FIG. 1B) and extracellular protein (FIG. 1C) were quantified in cell free supernatants according to the method described by Bradford (46).
Optical density measurements of cultures at 600 nm were determined using a Molecular Devices SpectraMax 190 96-well plate reader at the times indicated for each experiment. Cultures were centrifuged at 16,100×g for five minutes. The resulting cell free supernatants were filtered (0.2 μm) and assayed for protein as described by Bradford (46) using bovine serum albumin (Thermo Scientific, Rockford, Ill.) as a standard.
In experiment [7] the test system is C. difficile spore. The following applies: alongside taurocholate, reference (45); cited from earlier work.

“Also recorded” adds a separate entry of the source.

On to `N[C@@H](CS)C(=O)O` [L-cysteine], for which the intracellular toxin levels entry in experiment [1] is recorded as “significantly reduced”.

Take `O=C(O)[C@@H]1CC(O)CN1` (stereo partly drawn) [L-hydroxyproline, L-4-hydroxyproline]: the “toxin levels in media supernatants (band larger than 225 kDa)” value (“toxin levels in media supernatants” below) in experiment [2] is recorded as “no band corresponding to toxin was visible”. The “reduction in tcdB transcription” value in experiment [3] (relative to control cells) is at least 75%. Also, the “reduction in tcdA transcription” value in experiment [4] (relative to control cells) was at least 75%. The “growth (in words)” value in experiment [5] was “largest increase in growth; also recorded: comparable growth”.

`O=C(O)[C@@H]1CCCN1` [L-proline]: in experiment [2], the “toxin levels in media supernatants” value is listed as “higher toxin levels than the control”. In addition, in experiment [3], the “tcdB transcript relative to control cells” value is reported as “approximately three”. Also, in experiment [4], the “tcdA transcript relative to control cells” value is “approximately three”. Also, the intracellular toxin levels result in experiment [1] was “significantly reduced”.

Take `NCC(=O)O` [glycine]: the extracellular protein levels entry in experiment [6] is listed as “significantly higher”. Further, in experiment [2], the “toxin levels in media supernatants” value was “higher toxin levels than the control”. In addition, in experiment [2] (onset of toxin band), the toxin produced earlier entry was “approximately 24 hours”. In experiment [3], the “tcdB transcript relative to control cells” value was “nine”. In addition, the spore germination entry in experiment [7] is on record as “potent spore co-germinant”. The “tcdA transcript relative to control cells” value in experiment [4] is given as “nine”.
